Laboratory results: patent US10662205B2, “Cyclic boronic acid ester derivatives and therapeutic uses thereof” (priority 2014, dated 2020)
Read-outs that look alike come from different tables or passages of the source.

Columns and labels:
ECL1002 [1] = experiment: Tigemonam potentiation (MPC@4); format: cell-based; conditions: tigemonam 4 μg/mL
P99 = P99 (Enterobacter cloacae, UniProt P05364); experiment: biochemical; conditions: nitrocefin reporter substrate; 10 min preincubation; read-out: Ki P99, NCF
Chain of P99 (P05364 21-381): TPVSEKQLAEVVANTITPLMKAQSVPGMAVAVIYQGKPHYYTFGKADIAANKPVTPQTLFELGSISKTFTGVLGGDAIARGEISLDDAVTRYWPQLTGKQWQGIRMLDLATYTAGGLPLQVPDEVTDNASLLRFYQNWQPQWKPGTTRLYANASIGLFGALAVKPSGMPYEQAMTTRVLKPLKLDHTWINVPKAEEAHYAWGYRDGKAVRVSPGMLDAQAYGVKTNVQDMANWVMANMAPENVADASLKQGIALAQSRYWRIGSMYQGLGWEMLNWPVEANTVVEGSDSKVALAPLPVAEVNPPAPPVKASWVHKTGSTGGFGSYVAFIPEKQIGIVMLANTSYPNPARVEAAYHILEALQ
Experimental: (§1) Ki values of inhibition of purified class A, C and D enzymes were determined spectrophotometrically using nitrocefin as reporter substrate. Purified enzymes were mixed with various concentrations of inhibitors in reaction buffer and incubated for 10 min at room temperature. Nitrocefin was added and substrate cleavage profiles were recorded at 490 nm every 10 sec for 10 min.

KP1086 (OXA-48) = experiment: Biapenem potentiation (MPC@1); conditions: biapenem 1 μg/mL
KP1009 (CTX-M-15) [2] = experiment: Aztreonam potentiation (MPC@4); format: cell-based; conditions: aztreonam 4 μg/mL
ec308 (SHV-5) [3] = experiment: Aztreonam potentiation (MPC@4); format: cell-based; conditions: aztreonam 4 μg/mL
KP1005 (CTX-M-14) [4] = experiment: Tigemonam potentiation (MPC@4); format: cell-based; conditions: tigemonam 4 μg/mL
OXA-48 = OXA-48 (Klebsiella pneumoniae, UniProt Q6XEC0); experiment: Inhibition of nitrocefin cleavage by purified enzyme (Ki); format: biochemical; conditions: nitrocefin reporter substrate; 10 min preincubation; read-out: Ki OXA-48, NCF
Chain of OXA-48 (Q6XEC0 23-265, looked up, species assumed): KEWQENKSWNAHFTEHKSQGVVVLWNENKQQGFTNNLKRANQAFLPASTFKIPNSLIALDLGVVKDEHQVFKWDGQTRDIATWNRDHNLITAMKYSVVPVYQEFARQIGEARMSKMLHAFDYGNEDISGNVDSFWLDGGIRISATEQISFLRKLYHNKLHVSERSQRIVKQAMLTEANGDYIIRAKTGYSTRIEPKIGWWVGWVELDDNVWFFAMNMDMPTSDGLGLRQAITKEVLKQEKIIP
Experimental: (§2) Ki values of inhibition of purified class A, C and D enzymes were determined spectrophotometrically using nitrocefin as reporter substrate. Purified enzymes were mixed with various concentrations of inhibitors in reaction buffer and incubated for 10 min at room temperature. Nitrocefin was added and substrate cleavage profiles were recorded at 490 nm every 10 sec for 10 min. These experiments confirmed that the described compounds are inhibitors with a broad-spectrum of activity towards various β-lactamases.

KPC-2 = KPC-2 (Klebsiella pneumoniae, UniProt Q9F663); experiment: as above; format: biochemical; conditions: nitrocefin reporter substrate; 10 min preincubation; read-out: Ki KPC-2, NCF
Chain of KPC-2 (Q9F663 25-293, looked up, species assumed): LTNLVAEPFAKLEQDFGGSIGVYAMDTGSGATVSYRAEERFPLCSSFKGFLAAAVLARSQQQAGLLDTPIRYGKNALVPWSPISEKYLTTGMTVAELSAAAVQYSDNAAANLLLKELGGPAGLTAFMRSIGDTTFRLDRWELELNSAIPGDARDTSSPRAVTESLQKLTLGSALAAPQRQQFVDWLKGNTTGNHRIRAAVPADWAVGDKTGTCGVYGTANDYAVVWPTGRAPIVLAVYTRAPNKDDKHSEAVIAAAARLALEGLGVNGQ
Experimental: as §2

ec302 (TEM-10) [5] = experiment: Aztreonam potentiation (MPC@4); format: cell-based; conditions: aztreonam 4 μg/mL
KP1004 (KPC-2) [6] = experiment: Aztreonam potentiation (MPC@4); format: cell-based; conditions: aztreonam 4 μg/mL
SHV-12 = SHV-12 (Klebsiella pneumoniae, UniProt P0AD64, E235K/G234S/L31Q); experiment: Inhibition of nitrocefin cleavage by purified enzyme (Ki); format: biochemical
Chain of SHV-12 (P0AD64 22-286 L31Q/G234S/E235K): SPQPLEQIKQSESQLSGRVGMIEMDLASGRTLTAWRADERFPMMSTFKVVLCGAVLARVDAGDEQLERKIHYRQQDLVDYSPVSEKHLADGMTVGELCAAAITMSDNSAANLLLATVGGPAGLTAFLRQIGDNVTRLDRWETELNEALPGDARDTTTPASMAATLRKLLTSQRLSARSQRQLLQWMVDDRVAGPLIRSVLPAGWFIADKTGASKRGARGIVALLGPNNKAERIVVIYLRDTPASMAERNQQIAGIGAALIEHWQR
Experimental: as §1

CTX-M-14 = CTX-M-14 (Escherichia coli, UniProt Q9L5C7); experiment: as above; format: biochemical; conditions: nitrocefin reporter substrate; 10 min preincubation; read-out: Ki CTX-M-14, NCF
Chain of CTX-M-14 (Q9L5C7 29-291): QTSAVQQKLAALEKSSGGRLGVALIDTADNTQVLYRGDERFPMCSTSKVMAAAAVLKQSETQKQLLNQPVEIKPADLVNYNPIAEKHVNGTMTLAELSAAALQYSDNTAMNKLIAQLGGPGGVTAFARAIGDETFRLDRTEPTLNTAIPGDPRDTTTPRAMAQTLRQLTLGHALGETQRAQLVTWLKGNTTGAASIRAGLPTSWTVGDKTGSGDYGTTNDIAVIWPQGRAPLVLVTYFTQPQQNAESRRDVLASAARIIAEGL
Experimental: as §1

PAM1154/KPC-2 = experiment: Biapenem potentiation MPC64, efflux deficient strain; format: cell-based, Pseudomonas aeruginosa; parameters: unit not given here; conditions: efflux deficient (lacks MexAB-OprM); decrease biapenem MIC 64-fold, 32 to 0.5 μg/ml
Experimental: (§3) Efflux of BLIs from Pseudomonas aeruginosa by the MexAB-OprM efflux pump was also evaluated. The plasmid expressing the gene encoding KPC-2 was introduced into two strains of P. aeruginosa, PAM1032 and PAM1154 that overexpressed or lacked MexAB-OprM, respectively. Due to expression of KPC-2 both strains became resistant to biapenem. […] Potency of BLIs to potentiate biapenem in these strains was determined. […] The ratio of MPC64 values for each BLI in PAM1032/KPC-2 (efflux proficient) and PAM1154/KPC-2 (efflux deficient) was determined to generate the Efflux Index (EI).

KP1005 (CTX-M-14) [7] = experiment: Aztreonam potentiation (MPC@4); format: cell-based; conditions: aztreonam 4 μg/mL
Oral pharmacokinetics = format: in vivo; conditions: rat, plasma, rats, n=3, read-out: Range of % Oral Bioavailability
Experimental: Several compounds were tested for their oral pharmacokinetics. Rats (n=3 per compound) were administered a single oral dose. Oral doses were administered as a bolus. Plasma (˜0.3 mL) samples were collected from each rat at designated time points up to 24 hours. Blood samples were centrifuged within 5 min of collection at 12000 g for 5 min to obtain plasma. The plasma samples were stored at −80° C. until analyzed. Data were analyzed using WinNonlin.

ec308 (SHV-5) [8] = experiment: Tigemonam potentiation (MPC@4); format: cell-based; conditions: tigemonam 4 μg/mL
EC1010 (CMY-6) [9] = experiment: Aztreonam potentiation (MPC@4); format: cell-based; conditions: aztreonam 4 μg/mL
EC1010 (CMY-6) [10] = experiment: Tigemonam potentiation (MPC@4); format: cell-based; conditions: tigemonam 4 μg/mL; EC1010, CMY-6
KP1004 (KPC-2) [11] = experiment: Biapenem potentiation (MPC@1); conditions: biapenem 1 μg/mL
ECL1002 [12] = experiment: Aztreonam potentiation (MPC@4); format: cell-based; conditions: aztreonam 4 μg/mL
KP1010 (SHV-12) [13] = experiment: Tigemonam potentiation (MPC@4); format: cell-based
KP1009 (CTX-M-15) [14] = experiment: Tigemonam potentiation (MPC@4); format: cell-based
ec302 (TEM-10) [15] = experiment: Tigemonam potentiation (MPC@4); format: cell-based; conditions: tigemonam 4 μg/mL
KP1010 (SHV-12) [16] = experiment: Aztreonam potentiation (MPC@4); format: cell-based; conditions: aztreonam 4 μg/mL
PAM1032/KPC-2 = experiment: Biapenem potentiation MPC64, efflux proficient strain; format: cell-based, Pseudomonas aeruginosa; parameters: unit not given here; conditions: efflux proficient (MexAB-OprM overexpressed); decrease biapenem MIC 64-fold, 32 to 0.5 μg/ml
Experimental: as §3

CMY-2 = CMY-2 (Klebsiella pneumoniae, UniProt Q48434); experiment: Inhibition of nitrocefin cleavage by purified enzyme (Ki); format: biochemical; conditions: nitrocefin reporter substrate; 10 min preincubation; read-out: Ki CMY-2, NCF
Chain of CMY-2 (Q48434 21-381, species assumed): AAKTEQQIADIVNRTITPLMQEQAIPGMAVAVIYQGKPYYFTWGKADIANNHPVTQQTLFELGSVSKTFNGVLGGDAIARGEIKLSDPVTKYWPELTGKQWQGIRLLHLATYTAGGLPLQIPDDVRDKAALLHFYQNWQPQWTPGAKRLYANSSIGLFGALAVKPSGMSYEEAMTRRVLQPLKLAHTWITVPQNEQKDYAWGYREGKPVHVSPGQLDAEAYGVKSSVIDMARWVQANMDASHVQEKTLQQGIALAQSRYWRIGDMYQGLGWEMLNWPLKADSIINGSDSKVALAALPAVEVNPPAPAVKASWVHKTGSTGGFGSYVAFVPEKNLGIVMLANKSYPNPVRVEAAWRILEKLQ
Experimental: as §2

Structure (SMILES)	MPC@4 tigemonam potentiation (ECL1002 [1])	Ki (P99)	MPC@1 biapenem potentiation (KP1086 (OXA-48))	MPC@4 aztreonam potentiation (KP1009 (CTX-M-15) [2])	MPC@4 aztreonam potentiation (ec308 (SHV-5) [3])	MPC@4 tigemonam potentiation (KP1005 (CTX-M-14) [4])	Ki (OXA-48)	Ki (KPC-2)	MPC@4 aztreonam potentiation (KP1004 (KPC-2) [6])	Ki (SHV-12)	Ki (CTX-M-14)	PAM1154/KPC-2 Biapenem MPC64 (PAM1154/KPC-2)	MPC@4 aztreonam potentiation (KP1005 (CTX-M-14) [7])	MPC@4 tigemonam potentiation (ec308 (SHV-5) [8])	MPC@4 aztreonam potentiation (EC1010 (CMY-6) [9])	MPC@4 tigemonam potentiation (EC1010 (CMY-6) [10])	MPC@1 biapenem potentiation (KP1004 (KPC-2) [11])	MPC@4 aztreonam potentiation (ECL1002 [12])	MPC@4 tigemonam potentiation (KP1010 (SHV-12) [13])	MPC@4 tigemonam potentiation (KP1009 (CTX-M-15) [14])	further results
O=C(CSC(F)F)N[C@H]1CC=C[C@@H]2CC(=O)OB1O2 [Compound 3, 2-(DIFLUOROMETHYLTHIO)-N-((2R,6S)-8-OXO-9,10-DIOXA-1-BORABICYCLO[4.3.1]DEC-4-EN-2-YL)ACETAMIDE]	X (X = MPC@4 ≤ 5 μg/mL)	< 100 nM	Z (Z = MPC@1 > 20 μg/mL)	X (X = MPC@4 ≤ 5 μg/mL)	X (X = MPC@4 ≤ 5 μg/mL)	X (X = MPC@4 ≤ 5 μg/mL)	< 100 nM	100 to 1000 nM	X (X = MPC@4 ≤ 5 μg/mL)	< 100 nM	< 100 nM	5	X (X = MPC@4 ≤ 5 μg/mL)	X (X = MPC@4 ≤ 5 μg/mL)	X (X = MPC@4 ≤ 5 μg/mL)	X (X = MPC@4 ≤ 5 μg/mL)	X (X = MPC@1 ≤ 5 μg/mL)	X (X = MPC@4 ≤ 5 μg/mL)	X (key: X = MPC@4 ≤ 5 μg/mL; Y = 5 μg/mL < MPC@4 ≤ 20 μg/mL; Z = MPC@4 > 20 μg/mL)	X (key: X = MPC@4 ≤ 5 μg/mL; Y = 5 μg/mL < MPC@4 ≤ 20 μg/mL; Z = MPC@4 > 20 μg/mL)	MPC@4 aztreonam potentiation (ec302 (TEM-10) [5]): X (X = MPC@4 ≤ 5 μg/mL); bioavailability (Oral pharmacokinetics; single oral dose 30 mg/kg): 28 to 54%; MPC@4 tigemonam potentiation (ec302 (TEM-10) [15]): Y (Y = 5 μg/mL < MPC@4 ≤ 20 μg/mL); MPC@4 aztreonam potentiation (KP1010 (SHV-12) [16]): X (X = MPC@4 ≤ 5 μg/mL); PAM1032/KPC-2 Biapenem MPC64 (PAM1032/KPC-2): >80
Cn1cnnc1SCC(=O)N[C@H]1CC=C[C@@H]2CC(=O)OB1O2 [Compound 5, 2-(4-METHYL-4H-1,2,4-TRIAZOL-3-YLTHIO)-N-((2R,6S)-8-OXO-9,10-DIOXA-1-BORABICYCLO[4.3.1]DEC-4-EN-2-YL)ACETAMIDE]	X (X = MPC@4 ≤ 5 μg/mL)	< 100 nM	Z (Z = MPC@1 > 20 μg/mL)	X (X = MPC@4 ≤ 5 μg/mL)	X (X = MPC@4 ≤ 5 μg/mL)	X (X = MPC@4 ≤ 5 μg/mL)	100 to 1000 nM	100 to 1000 nM	Y (Y = 5 μg/mL < MPC@4 ≤ 20 μg/mL)	< 100 nM	< 100 nM	20	X (X = MPC@4 ≤ 5 μg/mL)	X (X = MPC@4 ≤ 5 μg/mL)	X (X = MPC@4 ≤ 5 μg/mL)	X (X = MPC@4 ≤ 5 μg/mL)	X (X = MPC@1 ≤ 5 μg/mL)	X (X = MPC@4 ≤ 5 μg/mL)	X (key: X = MPC@4 ≤ 5 μg/mL; Y = 5 μg/mL < MPC@4 ≤ 20 μg/mL; Z = MPC@4 > 20 μg/mL)	X (key: X = MPC@4 ≤ 5 μg/mL; Y = 5 μg/mL < MPC@4 ≤ 20 μg/mL; Z = MPC@4 > 20 μg/mL)	Ki (CMY-2): < 100 nM; bioavailability (Oral pharmacokinetics; single oral dose 50 mg/kg): 2.5 to 3%; MPC@4 tigemonam potentiation (ec302 (TEM-10) [15]): Z (Z = MPC@4 > 20 μg/mL); MPC@4 aztreonam potentiation (KP1010 (SHV-12) [16]): X (X = MPC@4 ≤ 5 μg/mL); PAM1032/KPC-2 Biapenem MPC64 (PAM1032/KPC-2): 80
O=C(CSc1nncs1)N[C@H]1CC=C[C@@H]2CC(=O)OB1O2 [Compound 7, 2-(1,3,4-THIADIAZOL-2-YLTHIO)-N-((2R,6S)-8-OXO-9,10-DIOXA-1-BORABICYCLO[4.3.1]DEC-4-EN-2-YL)ACETAMIDE]	X (X = MPC@4 ≤ 5 μg/mL)	< 100 nM	Z (Z = MPC@1 > 20 μg/mL)	X (X = MPC@4 ≤ 5 μg/mL)	X (X = MPC@4 ≤ 5 μg/mL)	X (X = MPC@4 ≤ 5 μg/mL)	< 100 nM	100 to 1000 nM	X (X = MPC@4 ≤ 5 μg/mL)	< 100 nM	< 100 nM	5	X (X = MPC@4 ≤ 5 μg/mL)	X (X = MPC@4 ≤ 5 μg/mL)	X (X = MPC@4 ≤ 5 μg/mL)	X (X = MPC@4 ≤ 5 μg/mL)	X (X = MPC@1 ≤ 5 μg/mL)	X (X = MPC@4 ≤ 5 μg/mL)	X (key: X = MPC@4 ≤ 5 μg/mL; Y = 5 μg/mL < MPC@4 ≤ 20 μg/mL; Z = MPC@4 > 20 μg/mL)	X (key: X = MPC@4 ≤ 5 μg/mL; Y = 5 μg/mL < MPC@4 ≤ 20 μg/mL; Z = MPC@4 > 20 μg/mL)	Ki (CMY-2): < 100 nM; MPC@4 aztreonam potentiation (ec302 (TEM-10) [5]): X (X = MPC@4 ≤ 5 μg/mL); MPC@4 tigemonam potentiation (ec302 (TEM-10) [15]): Y (Y = 5 μg/mL < MPC@4 ≤ 20 μg/mL); MPC@4 aztreonam potentiation (KP1010 (SHV-12) [16]): X (X = MPC@4 ≤ 5 μg/mL); PAM1032/KPC-2 Biapenem MPC64 (PAM1032/KPC-2): 40
